# According to ChEMBL document CHEMBL1201862, “PubChem BioAssay data set” (2004):
# Activity calls are given as the source filed them.
# Key:
# Exodeoxyribonuclease V = biological target: T1, Exodeoxyribonuclease V (Escherichia coli (strain K12), UniProt P04993+P07648+P08394); assay: E. coli RecBCD inhibitors, dose response, counter-screen for AddAB inhibitor project, absorbance, V66 E. coli, mutant T4 phage (AID 492957); type: functional, cell-based, Escherichia coli str. K-12 substr. MG1655
# T1 sequence (P04993 whole entry): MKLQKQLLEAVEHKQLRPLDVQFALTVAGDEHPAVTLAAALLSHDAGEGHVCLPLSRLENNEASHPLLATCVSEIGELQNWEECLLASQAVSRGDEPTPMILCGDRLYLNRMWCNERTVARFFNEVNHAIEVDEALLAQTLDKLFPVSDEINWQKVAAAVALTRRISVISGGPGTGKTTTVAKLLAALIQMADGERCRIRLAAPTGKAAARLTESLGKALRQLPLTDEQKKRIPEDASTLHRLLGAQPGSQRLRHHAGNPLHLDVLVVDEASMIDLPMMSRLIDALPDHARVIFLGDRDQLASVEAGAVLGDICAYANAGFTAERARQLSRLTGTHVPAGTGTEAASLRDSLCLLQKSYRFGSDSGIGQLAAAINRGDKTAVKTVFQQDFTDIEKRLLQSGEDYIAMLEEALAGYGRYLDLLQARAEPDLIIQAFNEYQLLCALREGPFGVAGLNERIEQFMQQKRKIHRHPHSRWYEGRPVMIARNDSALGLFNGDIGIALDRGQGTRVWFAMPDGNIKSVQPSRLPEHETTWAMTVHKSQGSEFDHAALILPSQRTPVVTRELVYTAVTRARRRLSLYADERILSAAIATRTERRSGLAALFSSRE
# T1 sequence (P07648 whole entry): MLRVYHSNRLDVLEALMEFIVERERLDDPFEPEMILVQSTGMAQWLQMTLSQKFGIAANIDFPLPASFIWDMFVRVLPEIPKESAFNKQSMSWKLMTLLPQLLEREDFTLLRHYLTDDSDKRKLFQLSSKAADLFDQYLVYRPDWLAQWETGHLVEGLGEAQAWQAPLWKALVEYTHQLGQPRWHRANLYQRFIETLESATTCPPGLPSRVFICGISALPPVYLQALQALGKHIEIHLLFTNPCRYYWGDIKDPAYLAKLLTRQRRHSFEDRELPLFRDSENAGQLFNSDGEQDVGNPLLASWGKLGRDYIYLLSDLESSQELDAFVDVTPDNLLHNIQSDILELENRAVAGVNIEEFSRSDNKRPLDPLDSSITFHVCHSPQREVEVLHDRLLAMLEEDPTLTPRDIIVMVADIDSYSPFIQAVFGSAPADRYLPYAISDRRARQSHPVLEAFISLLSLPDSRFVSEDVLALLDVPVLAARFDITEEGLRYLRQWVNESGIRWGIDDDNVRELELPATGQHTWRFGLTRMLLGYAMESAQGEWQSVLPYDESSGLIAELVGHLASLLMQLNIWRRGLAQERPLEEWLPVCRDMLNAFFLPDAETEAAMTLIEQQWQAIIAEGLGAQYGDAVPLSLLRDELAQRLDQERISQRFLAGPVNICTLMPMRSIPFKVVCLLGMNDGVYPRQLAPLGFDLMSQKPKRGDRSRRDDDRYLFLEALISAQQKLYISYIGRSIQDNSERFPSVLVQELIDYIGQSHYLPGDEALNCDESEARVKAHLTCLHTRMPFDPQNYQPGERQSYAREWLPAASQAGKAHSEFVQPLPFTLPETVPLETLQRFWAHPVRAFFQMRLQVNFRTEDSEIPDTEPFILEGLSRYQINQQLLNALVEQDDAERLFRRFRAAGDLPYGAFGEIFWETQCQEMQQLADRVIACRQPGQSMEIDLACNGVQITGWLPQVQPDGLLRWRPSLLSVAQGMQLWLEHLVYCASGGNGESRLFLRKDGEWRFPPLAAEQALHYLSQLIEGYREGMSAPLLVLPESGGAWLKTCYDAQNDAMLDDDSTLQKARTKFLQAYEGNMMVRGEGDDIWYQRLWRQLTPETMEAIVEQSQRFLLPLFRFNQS
# T1 sequence (P08394 whole entry): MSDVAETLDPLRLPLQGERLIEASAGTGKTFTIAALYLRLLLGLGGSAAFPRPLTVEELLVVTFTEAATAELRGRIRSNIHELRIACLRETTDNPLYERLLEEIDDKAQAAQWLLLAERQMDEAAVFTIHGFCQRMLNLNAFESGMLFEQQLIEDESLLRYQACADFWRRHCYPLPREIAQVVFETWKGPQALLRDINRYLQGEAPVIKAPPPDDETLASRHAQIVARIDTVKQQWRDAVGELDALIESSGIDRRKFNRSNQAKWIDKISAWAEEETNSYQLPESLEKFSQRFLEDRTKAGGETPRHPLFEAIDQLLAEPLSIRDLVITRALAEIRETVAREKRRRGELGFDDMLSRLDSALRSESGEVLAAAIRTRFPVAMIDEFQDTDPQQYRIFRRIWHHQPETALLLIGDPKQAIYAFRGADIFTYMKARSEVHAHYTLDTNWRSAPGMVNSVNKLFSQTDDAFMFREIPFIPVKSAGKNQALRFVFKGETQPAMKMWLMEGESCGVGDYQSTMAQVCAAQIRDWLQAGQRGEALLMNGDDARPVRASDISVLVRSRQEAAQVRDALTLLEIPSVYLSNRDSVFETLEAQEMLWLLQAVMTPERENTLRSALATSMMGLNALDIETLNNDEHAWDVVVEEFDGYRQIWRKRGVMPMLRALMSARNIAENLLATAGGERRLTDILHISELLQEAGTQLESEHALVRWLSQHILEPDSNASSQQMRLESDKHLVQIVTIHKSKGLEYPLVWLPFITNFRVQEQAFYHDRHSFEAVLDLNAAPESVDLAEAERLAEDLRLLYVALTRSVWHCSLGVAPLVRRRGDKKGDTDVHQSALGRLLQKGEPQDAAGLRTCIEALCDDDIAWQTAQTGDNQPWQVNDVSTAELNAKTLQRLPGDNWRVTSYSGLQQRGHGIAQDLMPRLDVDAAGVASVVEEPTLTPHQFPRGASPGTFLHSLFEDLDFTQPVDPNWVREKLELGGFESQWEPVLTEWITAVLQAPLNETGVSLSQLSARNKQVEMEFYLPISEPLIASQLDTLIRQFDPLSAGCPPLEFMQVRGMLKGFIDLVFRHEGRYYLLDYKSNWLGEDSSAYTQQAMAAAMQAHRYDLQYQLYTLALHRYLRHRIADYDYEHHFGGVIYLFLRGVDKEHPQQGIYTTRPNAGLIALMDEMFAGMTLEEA
# [1] = Counterscreen for AddAB inhibitors: absorbance-based bacterial cell-based high throughput dose response assay for inhibitors of bacterial viability. [Related pubchem assays (depositor defined):AID435030, AID449728, AID449731, AID488942, AID488955, AID488956]; type: functional
# [2] = biological target: T2, Mannose-6-phosphate isomerase (Homo sapiens, UniProt P34949); assay: PMI enzyme inhibitors, confirmation, biochemical, fluorescence intensity (AID 1535)
# T2 sequence (P34949 whole entry): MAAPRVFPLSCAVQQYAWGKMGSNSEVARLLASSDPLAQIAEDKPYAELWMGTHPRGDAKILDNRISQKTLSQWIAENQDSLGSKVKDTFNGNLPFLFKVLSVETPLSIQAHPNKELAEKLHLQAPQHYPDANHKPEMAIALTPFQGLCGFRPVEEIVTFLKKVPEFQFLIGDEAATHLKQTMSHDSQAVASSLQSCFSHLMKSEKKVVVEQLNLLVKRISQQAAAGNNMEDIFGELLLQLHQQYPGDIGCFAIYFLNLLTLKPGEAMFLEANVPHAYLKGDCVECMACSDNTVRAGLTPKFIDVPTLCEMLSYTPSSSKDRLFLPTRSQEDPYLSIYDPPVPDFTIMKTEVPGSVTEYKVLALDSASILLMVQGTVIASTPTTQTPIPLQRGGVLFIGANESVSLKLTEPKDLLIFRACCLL
# [3] = biological target: T3, RNA-binding protein pos-1 (Caenorhabditis elegans, UniProt G5EF15); assay: inhibitors of POS-1/mex-3 RNA binding, dose response, biochemical, fluorescence polarization (AID 1964);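 also: purified POS-1 fused to maltose binding protein made in E. coli; potency of compounds blocking POS-1 binding to fluorescent RNA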
# T3 sequence (G5EF15 whole entry): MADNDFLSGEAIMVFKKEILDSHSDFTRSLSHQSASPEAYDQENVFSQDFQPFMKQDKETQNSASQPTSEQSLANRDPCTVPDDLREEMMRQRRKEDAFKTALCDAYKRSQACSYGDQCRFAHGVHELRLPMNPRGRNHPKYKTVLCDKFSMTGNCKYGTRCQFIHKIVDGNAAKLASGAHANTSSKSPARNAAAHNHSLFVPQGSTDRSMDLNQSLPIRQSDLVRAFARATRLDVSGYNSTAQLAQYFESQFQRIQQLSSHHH
# [4] = biological target: T4, Zinc finger protein mex-5 (Caenorhabditis elegans, UniProt Q9XUB2); assay: MEX-5/TCR-2 RNA interaction inhibitors, dose response, biochemical, C. elegans, fluorescence polarization (AID 1960)
# T4 sequence (Q9XUB2 whole entry): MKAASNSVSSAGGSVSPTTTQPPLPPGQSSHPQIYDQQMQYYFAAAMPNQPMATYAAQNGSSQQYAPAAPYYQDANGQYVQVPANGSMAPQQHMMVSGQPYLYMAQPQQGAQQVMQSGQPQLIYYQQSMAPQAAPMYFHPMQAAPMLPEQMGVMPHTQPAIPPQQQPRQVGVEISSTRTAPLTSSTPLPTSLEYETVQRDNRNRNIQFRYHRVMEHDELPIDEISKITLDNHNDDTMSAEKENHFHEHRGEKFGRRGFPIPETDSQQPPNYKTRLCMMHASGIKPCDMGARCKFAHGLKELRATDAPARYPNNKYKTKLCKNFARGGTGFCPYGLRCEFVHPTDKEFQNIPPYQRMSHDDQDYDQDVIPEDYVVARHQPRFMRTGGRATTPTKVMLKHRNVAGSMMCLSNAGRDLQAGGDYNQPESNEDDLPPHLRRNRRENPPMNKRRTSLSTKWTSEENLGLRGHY
# [5] = biological target: Intestinal-type alkaline phosphatase (Mus musculus, UniProt P24822); assay: PubChem AID 488874; type: functional
# Intestinal-type alkaline phosphatase (Mus musculus, UniProt P24822), sequence (P24822 whole entry): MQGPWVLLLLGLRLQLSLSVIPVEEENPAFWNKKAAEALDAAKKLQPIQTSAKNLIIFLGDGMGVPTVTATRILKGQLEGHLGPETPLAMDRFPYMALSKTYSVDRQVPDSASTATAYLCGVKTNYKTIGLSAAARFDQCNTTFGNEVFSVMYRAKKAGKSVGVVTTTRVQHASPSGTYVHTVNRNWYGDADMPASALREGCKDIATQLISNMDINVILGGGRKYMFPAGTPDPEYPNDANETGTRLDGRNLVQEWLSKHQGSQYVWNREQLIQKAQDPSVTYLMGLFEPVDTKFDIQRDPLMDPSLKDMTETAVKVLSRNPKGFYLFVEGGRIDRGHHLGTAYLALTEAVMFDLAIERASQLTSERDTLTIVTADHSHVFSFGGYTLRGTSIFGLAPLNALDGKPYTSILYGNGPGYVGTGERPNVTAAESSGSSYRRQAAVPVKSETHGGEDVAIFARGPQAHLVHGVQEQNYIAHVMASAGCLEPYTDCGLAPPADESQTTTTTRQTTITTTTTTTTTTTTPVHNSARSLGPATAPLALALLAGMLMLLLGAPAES
# [6] = biological target: T5, Intestinal-type alkaline phosphatase (Homo sapiens, UniProt P09923); assay: human intestinal alkaline phosphatase activators, dose response, biochemical, luminescence, uHTS hits (AID 463120); type: functional
# T5 sequence (P09923 whole entry): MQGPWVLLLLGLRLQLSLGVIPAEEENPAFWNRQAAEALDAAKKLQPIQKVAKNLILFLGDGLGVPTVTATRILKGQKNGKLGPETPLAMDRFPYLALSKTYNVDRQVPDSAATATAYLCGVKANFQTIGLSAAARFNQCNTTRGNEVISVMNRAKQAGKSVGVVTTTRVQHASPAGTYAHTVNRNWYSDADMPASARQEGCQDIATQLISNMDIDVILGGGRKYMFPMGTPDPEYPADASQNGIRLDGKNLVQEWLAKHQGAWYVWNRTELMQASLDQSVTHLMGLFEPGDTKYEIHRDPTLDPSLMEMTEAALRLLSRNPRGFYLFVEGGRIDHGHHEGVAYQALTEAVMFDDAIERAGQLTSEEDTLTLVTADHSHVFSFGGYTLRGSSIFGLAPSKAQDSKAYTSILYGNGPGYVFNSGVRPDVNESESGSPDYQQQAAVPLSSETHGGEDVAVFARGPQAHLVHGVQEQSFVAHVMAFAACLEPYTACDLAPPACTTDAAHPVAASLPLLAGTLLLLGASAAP
# [7] = biological target: T5, Intestinal-type alkaline phosphatase; assay: human IAP activators, dose response, biochemical, luminescent, uHTS hits, set 2 (AID 488817); type: functional;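 also: potency of activators that raise enzyme activity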
# [8] = biological target: T6, Alkaline phosphatase, tissue-nonspecific isozyme (Homo sapiens, UniProt P05186); assay: TNAP enzyme activators, dose response, selectivity assay for human IAP activator project, biochemical, TNAP isozyme, human IAP uHTS hits (AID 488886); type: functional;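 also: potency of compounds raising TNAP activity as a selectivity check on IAP activators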
# T6 sequence (P05186 whole entry): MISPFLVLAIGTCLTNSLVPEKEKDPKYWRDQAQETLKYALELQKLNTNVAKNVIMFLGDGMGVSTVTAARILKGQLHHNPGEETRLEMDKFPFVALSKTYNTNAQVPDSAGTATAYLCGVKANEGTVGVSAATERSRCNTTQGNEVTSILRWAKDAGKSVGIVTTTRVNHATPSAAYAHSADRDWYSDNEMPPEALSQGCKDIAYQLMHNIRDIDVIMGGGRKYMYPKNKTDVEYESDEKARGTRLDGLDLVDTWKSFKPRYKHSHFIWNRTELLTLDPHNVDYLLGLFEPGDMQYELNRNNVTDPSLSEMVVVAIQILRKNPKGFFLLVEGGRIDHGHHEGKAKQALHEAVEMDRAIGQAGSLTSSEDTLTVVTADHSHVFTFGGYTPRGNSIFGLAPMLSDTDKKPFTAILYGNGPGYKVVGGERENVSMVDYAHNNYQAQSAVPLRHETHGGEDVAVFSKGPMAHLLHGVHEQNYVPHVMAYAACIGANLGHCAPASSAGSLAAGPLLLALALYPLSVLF
# [9] = NIH-3T3 fibroblast cytotoxicity, dose response, cytotoxicity control, cell-based, fluorescence, Alamar Blue, secondary assay (AID 2327); type: functional;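 also: NIH-3T3 mouse fibroblasts cultured with fluconazole at 8 µg/mL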
# [10] = C. albicans growth with fluconazole, confirmation, fluorescence, retest (AID 2467); type: functional, cell-based
# [11] = Luminescence Cell-Based Dose Retest to Confirm Inhibitors of Cancer Stem Cells. [Related pubchem assays (depositor defined):AID2717, AID2721]; type: functional; settings: Homo sapiens
# Albumin = Albumin (Bos taurus, UniProt P02769); assay: Counterscreen for inhibitors of T-cell receptor (TCR)-CD3 interaction: Fluorescence-based biochemical high throughput dose response assay to identify inhibitors of T-cell receptor (TCR)-CD3 interaction using a TAMRA-labeled BSA probe.; type: functional
# Albumin, sequence (P02769 whole entry): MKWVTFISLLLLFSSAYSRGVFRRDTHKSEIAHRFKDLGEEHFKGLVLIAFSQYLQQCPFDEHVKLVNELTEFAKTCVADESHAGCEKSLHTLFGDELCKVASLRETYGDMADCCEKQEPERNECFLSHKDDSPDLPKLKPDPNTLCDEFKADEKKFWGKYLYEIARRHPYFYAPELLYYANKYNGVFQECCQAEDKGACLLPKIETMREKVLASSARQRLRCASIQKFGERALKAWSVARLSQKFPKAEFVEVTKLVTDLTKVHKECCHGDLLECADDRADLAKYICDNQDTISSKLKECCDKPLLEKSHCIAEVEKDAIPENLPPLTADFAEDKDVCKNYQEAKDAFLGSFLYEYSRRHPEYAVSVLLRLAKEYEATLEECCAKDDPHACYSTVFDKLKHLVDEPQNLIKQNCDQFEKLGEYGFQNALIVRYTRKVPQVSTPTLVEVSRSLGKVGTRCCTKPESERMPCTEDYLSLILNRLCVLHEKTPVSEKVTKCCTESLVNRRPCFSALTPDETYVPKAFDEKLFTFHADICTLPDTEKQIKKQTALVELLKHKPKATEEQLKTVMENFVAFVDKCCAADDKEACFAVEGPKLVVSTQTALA
# Phosphomannomutase 2 = biological target: T7, Phosphomannomutase 2 (Homo sapiens, UniProt O15305); assay: Counter screen SAR assay for PMM2 inhibitors via a fluorescence intensity assay. [Related pubchem assays (depositor defined):AID1545, AID1574]
# T7 sequence (O15305 whole entry): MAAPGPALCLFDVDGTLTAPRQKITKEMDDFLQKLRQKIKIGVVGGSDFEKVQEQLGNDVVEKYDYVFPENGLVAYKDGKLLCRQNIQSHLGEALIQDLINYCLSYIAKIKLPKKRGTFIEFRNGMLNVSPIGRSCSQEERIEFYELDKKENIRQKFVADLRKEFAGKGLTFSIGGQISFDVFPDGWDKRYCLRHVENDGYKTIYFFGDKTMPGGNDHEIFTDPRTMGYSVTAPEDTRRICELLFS
# 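For AC50 in this document: cells exposed to compound for roughly 70 hours or longer before luminescence read.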
IC50 [2],IC50 [5],EC50 [6],EC50 [7],EC50 [8],Compound,IC50 (Exodeoxyribonuclease V),IC50 [1],also measured
> 100 µM (inactive),–,–,–,–,Clc1nss/c1=N\c1ccccn1,–,–,–
–,35.5 µM (active),8.21 µM (active),8.77 µM (active),> 100 µM (inactive),O=Nc1nc(O)c(/C=C(\O)c2ccccc2)nc1NO,–,–,IC50 (Albumin): > 94.2 µM (inactive)

# The remaining lines, values behind:
Compound,IC50 [2],IC50 [5],EC50 [6],EC50 [7],EC50 [8],IC50 (Exodeoxyribonuclease V),IC50 [1],also measured
CCNc1c([N+](=O)[O-])c(=O)oc2ccccc12,–,–,–,–,–,> 119 µM (inactive),> 119 µM (inactive),–
Cc1nc2c3ccccc3nc(NNC(=O)CCC(=O)N3CCCC(C)C3)n2n1 (stereo unspecified),–,64.2 µM (active),8.07 µM (active),10.7 µM (active),12.2 µM (active),–,–,EC50 [3]: > 300 µM (not active); EC50 [4]: 21 µM (active)
O=C1c2ccccc2NC(c2ccc(-c3cccc(Cl)c3)o2)N1O (stereo unspecified),–,–,–,–,–,> 119 µM (inactive),> 119 µM (inactive),EC50 [9]: 33.4 µM (active); EC50 [10]: 1.91 µM (active); AC50 [11]: 4.45 µM (active)
Cc1ccc(/N=c2\ssnc2Cl)cc1C,26.1 µM (active),–,–,–,–,–,–,IC50 (Phosphomannomutase 2): 95.4 µM (active)
